Laboratory results taken from publication PMC11279465, “Dual Inhibitors of P-gp and Carbonic Anhydrase XII (hCA XII) against Tumor Multidrug Resistance with Piperazine Scaffold” (Molecules, 2024).

Columns and labels:
K562/DOX cells [1] = assay: Intrinsic cytotoxicity (MTT); type: cell-based, human; details: compound alone at 3 µM, 72 h
Experimental: Compounds were first studied at 1 and 3 µM concentrations to evaluate their intrinsic cytotoxicity in both the parental K562 and the resistant K562/DOX cell lines, using the MTT assay. All compounds had no intrinsic cytotoxicity in the parental line.
(§1) The intrinsic toxicity of the studied compounds was determined by an MTT assay. K562 and K562/DOX were exposed for 72 h with compounds at 1 and 3 µM concentrations while HT29, A549, HT29/DOX and A549/DOX cells were incubated for 48 h with compounds used at different concentrations (from 10 nM to 50 µM). The percentage of growth compared to the untreated control was transformed into histograms with the GraphPad Prism 5 program.

K562/DOX cells [2] = assay: Doxorubicin cytotoxicity enhancement assay (MTT); type: cell-based, human; details: 72 h
Experimental: K562 is a highly undifferentiated erythroleukemia cell line. The doxorubicin-resistant K562/DOX cells overexpress almost exclusively the transporter membrane protein P-gp.
K562/DOX cells were incubated for 72 h with different concentrations of doxorubicin in combination with 1 or 3 µM of all compounds. […] HT29, A549, HT29/DOX and A549/DOX cells were incubated for 48 h with 5 µM doxorubicin, alone or in combination with 1 or 3 µM of selected compounds. Cell viability of the cell lines was measured by the MTT assay, using a Synergy HT microplate spectrofluorometer (Bio-Tek Instruments, Winooski, VT, USA). The absorbance of untreated cells was considered 100%; results were expressed as a percentage of viable treated cells versus the control untreated cells.

hCA II = target: T1, hCA II (Homo sapiens, UniProt P00918); assay: CA inhibition, stopped-flow CO2 hydrase assay; type: biochemical; details: stopped-flow technique; incubation time 6 h; mean of 3 assays
T1 construct: made in house
Experimental: (§2) Four hCA isoforms were used in this assay: the cytosolic hCA I and II and the tumor-associated transmembrane hCA IX and XII isoforms. Acetazolamide (AAZ) was used as a standard inhibitor.
(§3) An SX.18MV-R Applied Photophysics (Oxford, UK) stopped-flow instrument has been used to assay the catalytic/inhibition of various CA isozymes. […] Saturated CO2 solutions in water at 25 °C were used as substrate. Stock solutions of inhibitors were prepared at a concentration of 10 μM (in DMSO-water 1:1, v/v) and dilutions up to 0.01 nM were carried out with the assay buffer mentioned above. […] Inhibitor and enzyme solutions were preincubated together for 6 h at room temperature prior to assay in order to allow for the formation of the E-I complex. […] The inhibition constants were obtained by non-linear least-squares methods using the Cheng–Prusoff equation, as reported earlier, and represent the mean from at least three different determinations.

hCA I = target: T2, hCA I (Homo sapiens, UniProt P00915); assay: CA inhibition, stopped-flow CO2 hydrase assay; type: biochemical; details: stopped-flow technique; incubation time 6 h; mean of 3 assays
T2 construct: made in house
Experimental: as §2, §3

hCA XII = target: T3, hCA XII (Homo sapiens, UniProt O43570); assay: CA inhibition, stopped-flow CO2 hydrase assay; type: biochemical; details: stopped-flow technique; incubation time 6 h; mean of 3 assays
T3 construct: made in house
Experimental: as §2, §3

hCA IX = target: T4, hCA IX (Homo sapiens, UniProt Q16790); assay: CA inhibition, stopped-flow CO2 hydrase assay; type: biochemical; details: stopped-flow technique; incubation time 6 h; mean of 3 assays
T4 construct: made in house
Experimental: as §2, §3

A549/DOX cells [3] = assay: Intrinsic cytotoxicity (MTT); type: cell-based, human; details: compound alone at 1 µM; A549/DOX; 48 h
Experimental: (§4) All compounds were preliminarily studied to evaluate their intrinsic cytotoxicity at different concentrations (from 10 nM to 50 µM) in the parental HT29 and A549 and the resistant HT29/DOX and A549/DOX cells using the MTT assay.
as §1, with “program. […]” for “program.”

HT29/DOX cells [4] = assay: Intrinsic cytotoxicity (MTT); type: cell-based, human; details: compound alone at 1 µM; HT29/DOX; 48 h
Experimental: as §4
as §1, with “program. […]” for “program.”

P-gp = P-gp (Homo sapiens, UniProt P08183); assay: Calcein-AM transport inhibition in MDCK-MDR1 cells; type: cell-based; parameters: expressed in transfected cells; host or cells: MDCK (Madin-Darby Canine Kidney); details: mean ± SEM
From the text: The MDR interaction potency of these compounds was studied by detecting the inhibition of the P-gp-, MRP1- or BCRP-mediated efflux of a substrate in cells overexpressing the studied pumps. In detail, we measured the following: (i) the transport inhibition of the profluorescent probe calcein-AM (P-gp and MRP1 substrate) in MDCK-MDR1 and MDCK-MRP1 cells (P-gp- and MRP1-overexpressing cells, respectively); (ii) the transport inhibition of the fluorescent probe Hoechst 33342 (BCRP substrate) in MDCK-BCRP cells (BCRP-overexpressing cells).
Experiments were performed as previously described. MDCK-MDR1 and MDCK-MRP1 cells (30,000 cells per well) were seeded in a 96-well black CulturePlate in 100 µL of medium and allowed to grow overnight in a humidified atmosphere of 5% CO2 at 37 °C. Tested compounds (100 µL) in a final concentration ranging between 0.01 nM and 100 µM, solubilized in culture medium, were added to the monolayers. After 30 min in a humidified atmosphere of 5% CO2 at 37 °C, 100 µL of Calcein-AM in phosphate-buffered saline (PBS) was added to obtain a final concentration of 2.5 µM and the plate was incubated for 30 min. All wells were washed 3 times with 100 µL ice-cold PBS and read with Victor3 (PerkinElmer) after adding 100 µL of cold PBS. Excitation and emission wavelengths of 485 nm and 535 nm, respectively, were used. In these experimental conditions, cell Calcein-AM accumulation in the absence and in the presence of each tested compound was evaluated and compared to the basal level of fluorescence derived from untreated cells. The increase in fluorescence from the baseline level was measured in the treated wells. EC50 values were determined by fitting the rate of fluorescence increase versus log[dose].

A549/DOX cells [5] = assay: Doxorubicin co-administration assay (MTT); type: cell-based, human; details: compound at 3 µM + doxorubicin 5 µM, 48 h
Experimental: (§5) These compounds were then assayed at 1 and 3 µM concentrations in co-administration with doxorubicin at a concentration of 5 µM, which is known to discriminate well between sensitive and resistant cells. […] Moreover, in the A549/DOX cell line, the co-administration of 1, 2, 4–6, 14 and 19, tested at 3 µM, led to the highest enhancement of doxorubicin toxicity reaching a reduction of nearly 55.0% in cell viability.
(§6) K562/DOX cells were incubated for 72 h with different concentrations of doxorubicin in combination with 1 or 3 µM of all compounds. IC50 was the concentration killing 50% of cells and was determined graphically from relative survival curves obtained by GraphPad Prism 5 software (GraphPad, San Diego, CA, USA). HT29, A549, HT29/DOX and A549/DOX cells were incubated for 48 h with 5 µM doxorubicin, alone or in combination with 1 or 3 µM of selected compounds. Cell viability of the cell lines was measured by the MTT assay, using a Synergy HT microplate spectrofluorometer (Bio-Tek Instruments, Winooski, VT, USA). The absorbance of untreated cells was considered 100%; results were expressed as a percentage of viable treated cells versus the control untreated cells.

HT29/DOX cells [6] = assay: Doxorubicin co-administration assay (MTT); type: cell-based, human; details: compound at 3 µM + doxorubicin 5 µM, 48 h
Experimental: as §5, §6

A549/DOX cells [7] = assay: Intracellular doxorubicin accumulation; type: cell-based, human; details: compound at 3 µM + doxorubicin 5 µM, 24 h, vs doxorubicin alone
Experimental: (§7) Furthermore, we evaluated the intracellular accumulation of 5 µM doxorubicin in HT29/DOX and A549/DOX cells alone and in the presence of derivatives 1, 2, 4–6, 14, 19 and 33, studied at 1 and 3 µM. This test allowed us to investigate if the reduced viability measured in the co-administration assay was due to different retention of the anticancer drug within the cells. In the parental HT29 and A549 cell lines, we measured a greater amount of intracellular doxorubicin compared to their resistant counterparts, which was not enhanced by our selected compounds (Supplementary Materials, Figure S7). However, in HT29/DOX and A549/DOX cells, derivatives 1, 2, 4–6, 14, 19 and 33 were able to increase the intracellular retention of the anticancer drug, in a dose-dependent way. […]
(§8) Intracellular doxorubicin was measured in 10,000 cells seeded into 96-well plates and incubated for 24 h with 5 µM doxorubicin with or without 1 µM and 3 µM of each compound. The intracellular drug content was measured fluorimetrically as detailed previously using a Synergy HTX 96-well plate reader. The results were expressed as nmol doxorubicin/mg cell proteins based on the titration curve previously prepared.

HT29/DOX cells [8] = assay: Intracellular doxorubicin accumulation; type: cell-based, human; details: compound at 3 µM + doxorubicin 5 µM, 24 h, vs doxorubicin alone
Experimental: as §7, §8

T3 sequence (O43570 25-354): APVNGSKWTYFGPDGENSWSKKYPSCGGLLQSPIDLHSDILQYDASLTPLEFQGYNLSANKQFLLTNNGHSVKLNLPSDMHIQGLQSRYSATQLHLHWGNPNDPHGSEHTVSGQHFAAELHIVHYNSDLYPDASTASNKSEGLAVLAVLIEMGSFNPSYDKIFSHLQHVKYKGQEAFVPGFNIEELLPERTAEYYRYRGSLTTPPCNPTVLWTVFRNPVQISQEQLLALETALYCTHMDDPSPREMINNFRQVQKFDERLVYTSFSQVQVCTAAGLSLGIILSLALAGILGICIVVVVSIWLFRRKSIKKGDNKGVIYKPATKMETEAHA
T2 sequence (P00915 whole entry): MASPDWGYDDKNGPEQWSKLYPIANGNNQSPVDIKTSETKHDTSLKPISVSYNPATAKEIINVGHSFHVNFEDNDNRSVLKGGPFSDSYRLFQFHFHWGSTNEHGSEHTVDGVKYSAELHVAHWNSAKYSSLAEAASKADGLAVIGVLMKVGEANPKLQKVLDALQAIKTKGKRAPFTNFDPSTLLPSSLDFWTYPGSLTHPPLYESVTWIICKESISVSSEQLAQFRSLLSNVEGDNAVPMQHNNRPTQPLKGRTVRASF
P-gp, sequence (P08183 whole entry): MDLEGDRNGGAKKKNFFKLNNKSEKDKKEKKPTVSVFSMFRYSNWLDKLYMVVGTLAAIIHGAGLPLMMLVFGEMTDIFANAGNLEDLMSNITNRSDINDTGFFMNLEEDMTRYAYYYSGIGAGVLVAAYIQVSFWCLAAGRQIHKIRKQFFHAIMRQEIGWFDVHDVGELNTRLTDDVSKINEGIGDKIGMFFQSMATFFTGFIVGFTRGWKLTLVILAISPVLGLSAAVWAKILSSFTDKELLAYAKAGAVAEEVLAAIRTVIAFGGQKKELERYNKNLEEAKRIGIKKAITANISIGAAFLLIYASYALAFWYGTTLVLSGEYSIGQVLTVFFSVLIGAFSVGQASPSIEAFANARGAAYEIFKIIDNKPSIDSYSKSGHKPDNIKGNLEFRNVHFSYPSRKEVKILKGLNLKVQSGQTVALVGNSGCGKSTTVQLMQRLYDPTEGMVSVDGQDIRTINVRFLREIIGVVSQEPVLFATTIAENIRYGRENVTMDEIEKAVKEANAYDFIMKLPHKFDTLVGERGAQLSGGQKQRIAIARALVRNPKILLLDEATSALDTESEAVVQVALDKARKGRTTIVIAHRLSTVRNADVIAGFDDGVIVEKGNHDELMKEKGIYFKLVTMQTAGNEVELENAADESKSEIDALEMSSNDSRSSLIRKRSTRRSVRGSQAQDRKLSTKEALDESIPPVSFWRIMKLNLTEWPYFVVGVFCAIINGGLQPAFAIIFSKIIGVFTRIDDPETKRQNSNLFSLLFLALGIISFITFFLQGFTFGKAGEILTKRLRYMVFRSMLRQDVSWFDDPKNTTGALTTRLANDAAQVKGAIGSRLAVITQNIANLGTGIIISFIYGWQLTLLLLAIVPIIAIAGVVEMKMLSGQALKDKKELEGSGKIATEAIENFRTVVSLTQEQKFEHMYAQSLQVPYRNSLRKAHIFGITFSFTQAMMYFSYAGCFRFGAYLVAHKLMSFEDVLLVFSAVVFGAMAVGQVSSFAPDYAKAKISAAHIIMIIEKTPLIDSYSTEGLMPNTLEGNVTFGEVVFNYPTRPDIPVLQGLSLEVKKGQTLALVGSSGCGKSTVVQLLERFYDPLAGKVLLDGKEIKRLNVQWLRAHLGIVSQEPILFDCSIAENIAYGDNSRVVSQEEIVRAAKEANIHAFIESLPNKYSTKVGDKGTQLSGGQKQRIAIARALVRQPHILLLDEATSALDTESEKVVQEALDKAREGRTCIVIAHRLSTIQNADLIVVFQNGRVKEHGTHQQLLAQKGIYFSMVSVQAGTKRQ

SMILES | reduction of cellular viability (K562/DOX cells [1]) | RF (Reversal Fold: IC50 of doxorubicin alone / in presence of modulator) (K562/DOX cells [2]; compound at 1 µM) | RF (Reversal Fold: IC50 of doxorubicin alone / in presence of modulator) (K562/DOX cells [2]; compound at 3 µM) | Ki (hCA II) [nM] | Ki (hCA I) [nM] | Ki (hCA XII) [nM] | Ki (hCA IX) [nM] | toxicity (A549/DOX cells [3]) [%] | toxicity (HT29/DOX cells [4]) [%] | EC50 (P-gp) [nM] | reduction in cell viability (A549/DOX cells [5]) [%] | reduction in cell viability (HT29/DOX cells [6]) [%] | greater accumulation of doxorubicin (A549/DOX cells [7]) [fold] | greater accumulation of doxorubicin (HT29/DOX cells [8]) [fold]
COc1cc(/C=C/CN2CCN(CCCCOc3ccc4oc(=O)ccc4c3)CC2)cc(OC)c1OC [Compound 9, (E)-6-(4-(4-(3-(3,4,5-Trimethoxyphenyl)allyl)piperazin-1-yl)butoxy)-2H-chromen-2-one] | 30–50% | 2.5 | 1.3 | > 10000 | > 10000 | 7.3 | 22.1 |  |  |  |  |  |  | 
COc1ccc(C(CCCN2CCN(CCOc3ccc4ccc(=O)oc4c3)CC2)c2ccc(OC)cc2)cc1 [Compound 25, 7-(2-(4-(4,4-Bis(4-methoxyphenyl)butyl)piperazin-1-yl)ethoxy)-2H-chromen-2-one] | 30–50% | 5.9 |  | > 10000 | > 10000 | 84.7 | 113 | ≥ 35 | ≥ 35 |  |  |  |  | 
COc1ccc(C(CCCN2CCN(CCCCOc3ccc4oc(=O)ccc4c3)CC2)c2ccc(OC)cc2)cc1 [Compound 33, 6-(4-(4-(4,4-Bis(4-methoxyphenyl)butyl)piperazin-1-yl)butoxy)-2H-chromen-2-one] |  | 9.9 |  | > 10000 | > 10000 | 46.8 | 74.6 |  |  | 3020 ± 90 | 62.6 | 67.6 | 4 | 3
